Reference: patent US9796711B2, “Substituted pyrazolo[3,4-b]pyridin-6-carboxylic acids and method of use” (AbbVie S.àr.l., priority 2015, dated 2017)

What was measured:
ΔF508-CFTR [1] = molecular target: T1, ΔF508-CFTR (Homo sapiens, UniProt P13569, DEL508-508); experiment: CFTR cell surface levels using HRP-tagged ΔF508-CFTR expressing CFBE cells, in the presence of a co-corrector; type: cell-based; details: HRP-tagged ΔF508-CFTR expressing CFBE cells, in the presence of 3 μM co-corrector; for EC50: read-out: EC50
T1 construct: host or cells: CFBE41o-, doxycycline-inducible
In short: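 Cells were seeded with 0.5 μg/mL doxycycline and held 68 h at 37 °C. Test compounds plus 3 μM co-corrector (final 0.1% DMSO) were then added for 20 h at 33 °C. Washed cells received HRP substrate, and luminescence was normalized between DMSO and 3 μM co-corrector controls.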

ΔF508-CFTR [2] = molecular target: T1, ΔF508-CFTR; experiment: CFTR cell surface levels using HRP-tagged ΔF508-CFTR expressing CFBE cells, intrinsic corrector capacity; type: cell-based; details: HRP-tagged ΔF508-CFTR CFBE41o- cells, compounds alone (intrinsic corrector capacity), 20 hours at 33° C.; for % Activation: positive control 3 μM corrector; for EC50: read-out: EC50
In short: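 Here the cells express ΔF508-CFTR with horseradish peroxidase inserted in extracellular loop 4, so only rescued channel at the surface gives luminescent signal. Compounds act on their own, 20 h at the reduced temperature of 33 °C; values are percent activity relative to DMSO and a 3 μM corrector.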

T1 sequence (P13569 with tags, fused parts or gaps DEL508-508): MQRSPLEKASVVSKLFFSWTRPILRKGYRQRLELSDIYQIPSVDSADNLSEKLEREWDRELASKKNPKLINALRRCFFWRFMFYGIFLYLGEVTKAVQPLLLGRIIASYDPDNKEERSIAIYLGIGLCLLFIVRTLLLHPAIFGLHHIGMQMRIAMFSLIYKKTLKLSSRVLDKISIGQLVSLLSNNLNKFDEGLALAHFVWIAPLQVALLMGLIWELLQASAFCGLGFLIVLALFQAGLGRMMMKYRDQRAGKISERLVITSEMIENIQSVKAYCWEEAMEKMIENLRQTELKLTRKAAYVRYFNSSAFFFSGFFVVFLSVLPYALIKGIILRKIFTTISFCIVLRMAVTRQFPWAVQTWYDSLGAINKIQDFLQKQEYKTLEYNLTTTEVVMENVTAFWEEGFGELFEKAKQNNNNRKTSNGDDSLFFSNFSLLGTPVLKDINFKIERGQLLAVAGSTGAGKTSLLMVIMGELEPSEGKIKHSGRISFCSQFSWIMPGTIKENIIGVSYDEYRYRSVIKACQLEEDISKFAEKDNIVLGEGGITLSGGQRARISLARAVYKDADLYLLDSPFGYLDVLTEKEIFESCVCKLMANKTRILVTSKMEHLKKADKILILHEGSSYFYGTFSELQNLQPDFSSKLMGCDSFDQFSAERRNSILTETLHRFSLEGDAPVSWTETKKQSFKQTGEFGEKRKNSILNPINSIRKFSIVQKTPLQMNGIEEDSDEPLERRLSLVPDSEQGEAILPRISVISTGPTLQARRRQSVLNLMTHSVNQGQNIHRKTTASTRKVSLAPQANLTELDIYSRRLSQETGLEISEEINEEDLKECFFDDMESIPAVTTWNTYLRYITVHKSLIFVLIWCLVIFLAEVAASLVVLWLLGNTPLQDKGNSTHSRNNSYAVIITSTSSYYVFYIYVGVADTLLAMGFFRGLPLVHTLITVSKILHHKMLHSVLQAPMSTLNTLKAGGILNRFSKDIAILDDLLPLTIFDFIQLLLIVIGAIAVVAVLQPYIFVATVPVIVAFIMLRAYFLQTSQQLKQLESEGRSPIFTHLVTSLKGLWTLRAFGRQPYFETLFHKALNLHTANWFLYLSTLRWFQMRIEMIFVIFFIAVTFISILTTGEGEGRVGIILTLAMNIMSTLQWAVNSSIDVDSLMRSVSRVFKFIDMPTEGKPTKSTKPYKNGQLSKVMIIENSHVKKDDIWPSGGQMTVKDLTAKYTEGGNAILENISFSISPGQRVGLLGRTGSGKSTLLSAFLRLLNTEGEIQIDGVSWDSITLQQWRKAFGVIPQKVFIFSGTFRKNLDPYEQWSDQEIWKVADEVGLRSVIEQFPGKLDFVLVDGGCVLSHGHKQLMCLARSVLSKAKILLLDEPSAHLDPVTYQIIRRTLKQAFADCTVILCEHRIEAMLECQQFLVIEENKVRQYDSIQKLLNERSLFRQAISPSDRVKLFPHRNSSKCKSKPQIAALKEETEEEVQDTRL

SMILES	% Activation (ΔF508-CFTR [1]) [%]	EC50 (ΔF508-CFTR [1]) [nM]	% Activation (ΔF508-CFTR [2]) [%]	EC50 (ΔF508-CFTR [2]) [nM]
CC(C)c1nn(-c2cccc(C(F)(F)F)c2)c2nc(C(=O)O)cc(-c3ccc(N4CCC(C#N)CC4)cc3)c12 [compound 261, 4-[4-(4-cyanopiperidin-1-yl)phenyl]-3-(propan-2-yl)-1-[3-(trifluoromethyl)phenyl]-1H-pyrazolo[3,4-b]pyridine-6-carboxylic acid]	519.37	553	314.07	702
Cc1cccc(-n2nc(C(C)C)c3c(N4CCC5(CCOCC5)C4)cc(C(=O)O)nc32)c1 [compound 262, 1-(3-methylphenyl)-4-(8-oxa-2-azaspiro[4.5]decan-2-yl)-3-(propan-2-yl)-1H-pyrazolo[3,4-b]pyridine-6-carboxylic acid]	375.95	853	164.4	916
COC1CCN(c2cc(C(=O)O)nc3c2c(C(C)C)nn3C2CCCCC2)CC1 [compound 264, 1-cyclohexyl-4-(4-methoxypiperidin-1-yl)-3-(propan-2-yl)-1H-pyrazolo[3,4-b]pyridine-6-carboxylic acid]	428.47	463	213.88	747
CC(C)c1nn(C2CCCCC2)c2nc(C(=O)O)cc(N3CCCCC3)c12 [compound 265, 1-cyclohexyl-4-(piperidin-1-yl)-3-(propan-2-yl)-1H-pyrazolo[3,4-b]pyridine-6-carboxylic acid]	397.8	1390	132.05	1240
CC(C)c1nn(C2CCCCC2)c2nc(C(=O)O)cc(N3CCC(CO)CC3)c12 [compound 266, 1-cyclohexyl-4-[4-(hydroxymethyl)piperidin-1-yl]-3-(propan-2-yl)-1H-pyrazolo[3,4-b]pyridine-6-carboxylic acid]	405.3	1050	197.55	1250
CC(C)c1nn(-c2cccc(N(C)C)n2)c2nc(C(=O)O)cc(-c3ccc(N4CCOCC4)cc3)c12 [compound 267, 1-[6-(dimethylamino)pyridin-2-yl]-4-[4-(morpholin-4-yl)phenyl]-3-(propan-2-yl)-1H-pyrazolo[3,4-b]pyridine-6-carboxylic acid]	498.35	412	318.9	807
CC(C)c1nn(-c2cccc(OC(F)(F)F)c2)c2nc(C(=O)O)cc(-c3ccc(N4CCOCC4)cc3)c12 [compound 269, 4-[4-(morpholin-4-yl)phenyl]-3-(propan-2-yl)-1-[3-(trifluoromethoxy)phenyl]-1H-pyrazolo[3,4-b]pyridine-6-carboxylic acid]	452.33	391	264.3	581
CC(C)c1nn(-c2cccc(N(C)C)c2)c2nc(C(=O)O)cc(N3CCC(C(F)(F)F)C3)c12 (stereo not shown) [compound 270, 1-[3-(dimethylamino)phenyl]-3-(propan-2-yl)-4-[3-(trifluoromethyl)pyrrolidin-1-yl]-1H-pyrazolo[3,4-b]pyridine-6-carboxylic acid]	430.4	529	236.02	698
Cc1cccc(-n2nc(C(C)C)c3c(N4CCC5(C4)CC5(F)F)cc(C(=O)O)nc32)c1 (stereo not shown) [compound 271, 4-(1,1-difluoro-5-azaspiro[2.4]heptan-5-yl)-1-(3-methylphenyl)-3-(propan-2-yl)-1H-pyrazolo[3,4-b]pyridine-6-carboxylic acid]	323.5	396	144.2	924
Cc1cccc(-n2nc(C(C)C)c3c(N4CCC(S(C)(=O)=O)C4)cc(C(=O)O)nc32)c1 (stereo not shown) [compound 272, 4-[3-(methanesulfonyl)pyrrolidin-1-yl]-1-(3-methylphenyl)-3-(propan-2-yl)-1H-pyrazolo[3,4-b]pyridine-6-carboxylic acid]	319.6	3340	135.5	3340
Cc1cccc(-n2nc(C(C)C)c3c(N4CC5(CCC5)C4)cc(C(=O)O)nc32)c1 [compound 273, 4-(2-azaspiro[3.3]heptan-2-yl)-1-(3-methylphenyl)-3-(propan-2-yl)-1H-pyrazolo[3,4-b]pyridine-6-carboxylic acid]	311.05	985	100.16	1020
Cc1cccc(-n2nc(C(C)C)c3c(N4CC5(CCCCO5)C4)cc(C(=O)O)nc32)c1 [compound 274, 1-(3-methylphenyl)-4-(5-oxa-2-azaspiro[3.5]nonan-2-yl)-3-(propan-2-yl)-1H-pyrazolo[3,4-b]pyridine-6-carboxylic acid]	301.45	902	114.64	1080
COCCN(CCOC)c1ccc(-c2cc(C(=O)O)nc3c2c(C(C)C)nn3C2CCCCC2)cn1 [compound 275, 4-{6-[bis(2-methoxyethyl)amino]pyridin-3-yl}-1-cyclohexyl-3-(propan-2-yl)-1H-pyrazolo[3,4-b]pyridine-6-carboxylic acid]	371.35	736	173.8	923
CC(C)c1nn(C2CCCCC2)c2nc(C(=O)O)cc(-c3ccc(N(C)C4CCOC4)nc3)c12 (stereo not shown) [compound 276, 1-cyclohexyl-4-{6-[methyl(oxolan-3-yl)amino]pyridin-3-yl}-3-(propan-2-yl)-1H-pyrazolo[3,4-b]pyridine-6-carboxylic acid]	407.8	372	206.93	504
CN(c1ncc(-c2cc(C(=O)O)nc3c2c(C2CCC2)nn3-c2cccc(N3CCCC3)c2)cn1)C1CCOCC1 [compound 277, 3-cyclobutyl-4-{2-[methyl(oxan-4-yl)amino]pyrimidin-5-yl}-1-[3-(pyrrolidin-1-yl)phenyl]-1H-pyrazolo[3,4-b]pyridine-6-carboxylic acid]	608.57	515	356.47	513
CC(C)c1nn(-c2ccc(F)c(F)c2)c2nc(C(=O)O)cc(-c3ccc(N(C)C4CCOCC4)cc3)c12 [compound 278, 1-(3,4-difluorophenyl)-4-{4-[methyl(oxan-4-yl)amino]phenyl}-3-(propan-2-yl)-1H-pyrazolo[3,4-b]pyridine-6-carboxylic acid]	446.55	676	259.1	991
CC(C)c1nn(-c2ccc(F)c(F)c2)c2nc(C(=O)O)cc(-c3ccc(N4CCC(C#N)CC4)nc3)c12 [compound 279, 4-[6-(4-cyanopiperidin-1-yl)pyridin-3-yl]-1-(3,4-difluorophenyl)-3-(propan-2-yl)-1H-pyrazolo[3,4-b]pyridine-6-carboxylic acid]	427.65	499	257.8	900
CC(C)c1nn(-c2ccc(F)cc2)c2nc(C(=O)O)cc(-c3cnc(N(C)C4CCOCC4)nc3)c12 [compound 280, 1-(4-fluorophenyl)-4-{2-[methyl(oxan-4-yl)amino]pyrimidin-5-yl}-3-(propan-2-yl)-1H-pyrazolo[3,4-b]pyridine-6-carboxylic acid]	440.83	249	238.6	485
CC(C)c1nn(-c2cccc(C(F)(F)F)c2)c2nc(C(=O)O)cc(-c3cnc(N(C)C4CCOCC4)nc3)c12 [compound 281, 4-{2-[methyl(oxan-4-yl)amino]pyrimidin-5-yl}-3-(propan-2-yl)-1[3-(trifluoromethyl)phenyl]-1H-pyrazolo[3,4-b]pyridine-6-carboxylic acid]	425.85	908	226.7	1290
CC(C)c1nn(-c2cc(F)cc(F)c2)c2nc(C(=O)O)cc(-c3ccc(N4CCC(C#N)CC4)cc3)c12 [compound 282, 4-[4-(4-cyanopiperidin-1-yl)phenyl]-1-(3,5-difluorophenyl)-3-(propan-2-yl)-1H-pyrazolo[3,4-b]pyridine-6-carboxylic acid]	476.23	341	269.33	492
CC(C)c1nn(-c2cccc(F)c2)c2nc(C(=O)O)cc(-c3ccc(N(C)C4CCOCC4)nc3)c12 [compound 283, 1-(3-fluorophenyl)-4-{6-[methyl(oxan-4-yl)amino]pyridin-3-yl}-3-(propan-2-yl)-1H-pyrazolo[3,4-b]pyridine-6-carboxylic acid]	435.2	367	233.17	649
CC(C)c1nn(-c2cccc(F)c2)c2nc(C(=O)O)cc(-c3ccc(N(C)C4CCOCC4)cc3)c12 [compound 284, 1-(3-fluorophenyl)-4-{4-[nethyl(oxan-4-yl)amino]phenyl}-3-(propan-2-yl)-1H-pyrazolo[3,4-b]pyridine-6-carboxylic acid]	435.23	282	240.8	501
